The results in this text go back to ChEMBL document CHEMBL4480396 (Eur J Med Chem, 2019).

Each structure is given as a SMILES string.

What all share (format): functional, cell-based
One test deals with PC-3. Briefly: Antiproliferative activity against human PC3 cells measured after 48 hrs by MTT assay. Particulars: PC-3, 48 h. (In general: Formazan colour is commonly taken as a measure of viable cells.)
Test [1] relates to MGC-803. The test can be described thus: Antiproliferative activity against human MGC803 cells measured after 48 hrs by MTT assay. Particulars: MGC-803, 48 h.
The next test deals with HepG2. Briefly: Antiproliferative activity against human HepG2 cells measured after 48 hrs by MTT assay. The conditions noted are these: HepG2, 48 h.
Test [2] deals with MGC-803. Briefly: Antiproliferative activity against human MGC803 cells measured after 48 hrs by CCK8 assay. Particulars: MGC-803, 48 h.

One may read the IC50 as the midpoint of a concentration-inhibition curve. Low readings indicate greater potency, high ones weaker potency. `COc1ccc(CN(C(=O)Cn2cc(CNS(=O)(=O)c3ccc(Br)cc3)nn2)c2cc(OC)c(OC)c(OC)c2)cc1`: the concentration for half-maximal inhibition (IC50) with PC-3 was 12.5 µM; in the test with MGC-803 [1], 0.43 µM; with HepG2, 7.37 µM.
In the same order, the values of `C#CCOc1ccc2ccc(=O)oc2c1` are more than 80 µM, more than 80 µM and more than 80 µM.
Turning to `COc1ccc(CN(C(=O)Cn2cc(CSc3nnc(-c4ccccc4)c(-c4ccccc4)n3)nn2)c2cc(OC)c(OC)c(OC)c2)cc1`, the figures for the IC50 with PC-3, with MGC-803 [1] and with HepG2 were 19.6 µM, 1.52 µM and 21.8 µM, respectively.
As for `COc1ccc(CN(C(=O)Cn2cc(COc3ccc4ccc(=O)oc4c3)nn2)c2cc(OC)c(OC)c(OC)c2)cc1`, the figures for the half-inhibitory concentration (IC50) in the test with PC-3, in the test on MGC-803 [1] and in the test on HepG2 were 0.86 µM, 0.18 µM and 1.3 µM, respectively.
Regarding `COc1ccc(CN(C(=O)Cn2cc(COc3ccccc3)nn2)c2cc(OC)c(OC)c(OC)c2)cc1`, the IC50 with PC-3 is 45.3 µM; in the test with MGC-803 [1] it was 12.5 µM; in the test with HepG2, 20.5 µM.
Consider `COc1ccc(CN(C(=O)Cn2cc(CN3c4ccccc4Sc4ccccc43)nn2)c2cc(OC)c(OC)c(OC)c2)cc1`, for which the half-maximal inhibitory concentration (IC50) with PC-3, in the test with MGC-803 [1] and in the test with HepG2 was more than 80 µM throughout.
In the test with MGC-803 [2], `COc1cc(N2C(=O)[C@H](c3cccs3)[C@H]2c2cccc(N=[N+]=[N-])c2)cc(OC)c1OC` showed an IC50 of 0.106 µM. This counts as sub-micromolar.
For the compound `COc1ccc(CN(C(=O)Cn2cc(Cn3ccc4ccccc43)nn2)c2cc(OC)c(OC)c(OC)c2)cc1`, the IC50 in the test on PC-3 worked out at 2.39 µM; with MGC-803 [1], 42.6 µM; in the test with HepG2, 40.1 µM.
For `COc1ccc(CN(C(=O)Cn2cc(CSC3=NCCS3)nn2)c2cc(OC)c(OC)c(OC)c2)cc1`, the IC50 with PC-3 was determined as 16 µM; in the test with MGC-803 [1], 1.61 µM; with HepG2, 25 µM.
